Test results published in US5763404A, “Methods for using LHRH antagonists with low histamine release” (priority 1995, dated 1998).
Starred links: 1 amine or outer side, 2 acyl side, 3 side chain; linkers in the order of their positions; H or OH if unused. Non-standard residues stand in square brackets, D forms with d. Residues, ends and D or L forms follow the SMILES beside them. *: point of attachment. dAla(cis-4-NHCOPyz-cHex) = N[C@H](C[C@H]1CC[C@@H](NC(=O)c2cnccn2)CC1)C(=O)O; X3 = O=C(N[C@H]1CC[C@H](C[C@@H](N[*:1])C(=O)[*:2])CC1)c1cnccn1; X7 = O=C(N[C@H]1CC[C@H](C[C@@H](N[*:1])C(=O)[*:2])CC1)c1cccnc1; dPhe(3,4-Cl2) = N[C@H](Cc1ccc(Cl)c(Cl)c1)C(=O)O; dPhe(4-Cl) = N[C@H](Cc1ccc(Cl)cc1)C(=O)O; Pyrimidin2yl(4,6-Me2) = Cc1cc(C)nc(*)n1; d2Nal = N[C@H](Cc1ccc2ccccc2c1)C(=O)O; dLys(iPr) = CC(C)NCCCC[C@@H](N)C(=O)O; Lys(iPr) = CC(C)NCCCC[C@H](N)C(=O)O; Orn(iPr) = CC(C)NCCC[C@H](N)C(=O)O; d3Pal = N[C@H](Cc1cccnc1)C(=O)O; Nicotinoyl = O=C(c1cccnc1)*; Picolinoyl = O=C(c1ccccn1)*; Nle = CCCC[C@H](N)C(=O)O; Orn = NCCC[C@H](N)C(=O)O; X12 = O=C(c1ccncn1)*

System: anaesthesized rats
Experiment: wheal test, intradermal injection
Assay type: in vivo, rat
Details: 10 ug peptide intradermally
Summary of the method: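 Anaesthetized rats given intradermal injection of 10 ug peptide in 100 ul saline; area of the wheal calculated from its diameter.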

Row | SMILES | Wheal Area [mm^2 /10 μg]
1 | CC(=O)N[C@H](Cc1ccc2ccccc2c1)C(=O)N[C@H](Cc1ccc(Cl)cc1)C(=O)N[C@H](Cc1cccnc1)C(=O)N[C@@H](CO)C(=O)N[C@@H](CCCCNC(=O)c1ccccn1)C(=O)N[C@H](C[C@H]1CC[C@@H](NC(=O)c2cnccn2)CC1)C(=O)N[C@@H](CC(C)C)C(=O)N[C@@H](CCCNC(=N)N)C(=O)N1CCC[C@H]1C(=O)N[C@H](C)C(N)=O [compound 26347] (Ac-[d2Nal][dPhe(4-Cl)][d3Pal]SK(Picolinoyl)[dAla(cis-4-NHCOPyz-cHex)]LRP[dA]-NH2) | 119.6 ± 8.5
2 | CC(=O)N[C@H](Cc1ccc2ccccc2c1)C(=O)N[C@H](Cc1ccc(Cl)cc1)C(=O)N[C@H](Cc1cccnc1)C(=O)N[C@@H](CO)C(=O)N[C@@H](CCCCNC(=O)c1ccncn1)C(=O)N[C@H](CCCCNC(=O)c1ccncn1)C(=O)N[C@@H](CC(C)C)C(=O)N[C@@H](CCCCNC(C)C)C(=O)N1CCC[C@H]1C(=O)N[C@H](C)C(N)=O [compound 26322] (Ac-[d2Nal][dPhe(4-Cl)][d3Pal]SK(X12)[dK](X12)L[Lys(iPr)]P[dA]-NH2) | 130.2 ± 2.5
3 | CC(=O)N[C@H](Cc1ccc2ccccc2c1)C(=O)N[C@H](Cc1ccc(Cl)cc1)C(=O)N[C@H](Cc1cccnc1)C(=O)N[C@@H](CO)C(=O)N[C@@H](CCCCNC(=O)c1ccccn1)C(=O)N[C@H](CCCCNC(=O)c1ccccn1)C(=O)N[C@H](C(=O)N[C@@H](CCCNC(C)C)C(=O)N1CCC[C@H]1C(=O)N[C@H](C)C(N)=O)C(C)C [compound 26118] (Ac-[d2Nal][dPhe(4-Cl)][d3Pal]SK(Picolinoyl)[dK](Picolinoyl)V[Orn(iPr)]P[dA]-NH2) | 119.6 ± 6.6
4 | CC(=O)N[C@H](Cc1ccc2ccccc2c1)C(=O)N[C@H](Cc1ccc(Cl)cc1)C(=O)N[C@H](Cc1cccnc1)C(=O)N[C@@H](CO)C(=O)N[C@@H](CCCCNC(=O)c1ccccn1)C(=O)N[C@H](C[C@H]1CC[C@@H](NC(=O)c2cnccn2)CC1)C(=O)N[C@@H](CC(C)C)C(=O)N[C@@H](CCCCNC(C)C)C(=O)N1CCC[C@H]1C(=O)N[C@H](C)C(N)=O [IBR 25897] (Ac-[d2Nal][dPhe(4-Cl)][d3Pal]SK(Picolinoyl)[dAla(cis-4-NHCOPyz-cHex)]L[Lys(iPr)]P[dA]-NH2) | 122.8 ± 5.7
5 | CC(=O)N[C@H](Cc1ccc2ccccc2c1)C(=O)N[C@H](Cc1ccc(Cl)cc1)C(=O)N[C@H](Cc1cccnc1)C(=O)N[C@@H](CO)C(=O)N[C@@H](CCCCNC(=O)c1cccnc1)C(=O)N[C@H](C[C@H]1CC[C@H](NC(=O)c2cccnc2)CC1)C(=O)N[C@@H](CC(C)C)C(=O)N[C@@H](CCCCNC(C)C)C(=O)N1CCC[C@H]1C(=O)N[C@H](C)C(N)=O [IBR 25647] (Ac-[d2Nal][dPhe(4-Cl)][d3Pal]SK(Nicotinoyl)[X7]L[Lys(iPr)]P[dA]-NH2) | 119.5 ± 3.2

Further lines, results first:

Row | Wheal Area [mm^2 /10 μg] | SMILES
6 | 139.8 ± 7.1 | CC(=O)N[C@H](Cc1ccc2ccccc2c1)C(=O)N[C@H](Cc1ccc(Cl)c(Cl)c1)C(=O)N[C@H](Cc1cccnc1)C(=O)N[C@@H](CO)C(=O)N[C@@H](CCCCNC(=O)c1ccccn1)C(=O)N[C@H](CCCCNC(=O)c1ccccn1)C(=O)N[C@@H](CC(C)C)C(=O)N[C@@H](CCCCNC(C)C)C(=O)N1CCC[C@H]1C(=O)N[C@H](C)C(N)=O [compound 25807] (Ac-[d2Nal][dPhe(3,4-Cl2)][d3Pal]SK(Picolinoyl)[dK](Picolinoyl)L[Lys(iPr)]P[dA]-NH2)
7 | 129.6 ± 8.8 | CC(=O)N[C@H](Cc1ccc2ccccc2c1)C(=O)N[C@H](Cc1ccc(Cl)cc1)C(=O)N[C@H](Cc1cccnc1)C(=O)N[C@@H](CO)C(=O)N[C@@H](CCCCNC(=O)c1cccnc1)C(=O)N[C@H](C[C@H]1CC[C@H](NC(=O)c2cnccn2)CC1)C(=O)N[C@@H](CC(C)C)C(=O)N[C@@H](CCCCNC(C)C)C(=O)N1CCC[C@H]1C(=O)N[C@H](C)C(N)=O [compound 25805] (Ac-[d2Nal][dPhe(4-Cl)][d3Pal]SK(Nicotinoyl)[X3]L[Lys(iPr)]P[dA]-NH2)
8 | 107.0 ± 6.0 | CCCC[C@H](NC(=O)[C@@H](CCCCNC(=O)c1ccccn1)NC(=O)[C@H](CCCCNC(=O)c1ccccn1)NC(=O)[C@H](CO)NC(=O)[C@@H](Cc1cccnc1)NC(=O)[C@@H](Cc1ccc(Cl)cc1)NC(=O)[C@@H](Cc1ccc2ccccc2c1)NC(C)=O)C(=O)N[C@@H](CCCCNC(C)C)C(=O)N1CCC[C@H]1C(=O)N[C@H](C)C(N)=O [compound 25988] (Ac-[d2Nal][dPhe(4-Cl)][d3Pal]SK(Picolinoyl)[dK](Picolinoyl)[Nle][Lys(iPr)]P[dA]-NH2)
9 | 129.4 ± 3.3 | CC(=O)N[C@H](Cc1ccc2ccccc2c1)C(=O)N[C@H](Cc1ccc(Cl)cc1)C(=O)N[C@H](Cc1cccnc1)C(=O)N[C@@H](CO)C(=O)N[C@@H](Cc1ccc(O)cc1)C(=O)N[C@H](C[C@H]1CC[C@@H](NC(=O)c2cnccn2)CC1)C(=O)N[C@@H](CC(C)C)C(=O)N[C@@H](CCCCNC(C)C)C(=O)N1CCC[C@H]1C(=O)N[C@H](CO)C(N)=O [compound 26365] (Ac-[d2Nal][dPhe(4-Cl)][d3Pal]SY[dAla(cis-4-NHCOPyz-cHex)]L[Lys(iPr)]P[dS]-NH2)

Same assay, conditions: Table I; 10 ug peptide intradermally

Row | SMILES | Wheal [mm^2 /10]
10 | CC(=O)N[C@H](Cc1ccc2ccccc2c1)C(=O)N[C@H](Cc1ccc(Cl)cc1)C(=O)N[C@H](Cc1cccnc1)C(=O)N[C@@H](CO)C(=O)N[C@@H](CCCCNC(=O)c1cccnc1)C(=O)N[C@H](CCCCNC(=O)c1cccnc1)C(=O)N[C@@H](CC(C)C)C(=O)N[C@@H](CCCNc1nc(C)cc(C)n1)C(=O)N1CCC[C@H]1C(=O)N[C@H](C)C(N)=O [compound 25143] (Ac-[d2Nal][dPhe(4-Cl)][d3Pal]SK(Nicotinoyl)[dK](Nicotinoyl)L[Orn](Pyrimidin2yl(4,6-Me2))P[dA]-NH2) | 113.6
11 | CC(=O)N[C@H](Cc1ccc2ccccc2c1)C(=O)N[C@H](Cc1ccc(Cl)cc1)C(=O)N[C@H](Cc1cccnc1)C(=O)N[C@@H](CO)C(=O)N[C@@H](CCCCNC(=O)c1cccnc1)C(=O)N[C@H](CCCCNC(C)C)C(=O)N[C@@H](CC(C)C)C(=O)N[C@@H](CCCNC(=N)N)C(=O)N1CCC[C@H]1C(=O)N[C@H](C)C(N)=O [compound 24754] (Ac-[d2Nal][dPhe(4-Cl)][d3Pal]SK(Nicotinoyl)[dLys(iPr)]LRP[dA]-NH2) | 196.9 ± 4.1

Next, values leading:

Row | Wheal [mm^2 /10] | SMILES
12 | 92.2 ± 2.9 | CC(=O)N[C@H](Cc1ccc2ccccc2c1)C(=O)N[C@H](Cc1ccc(Cl)cc1)C(=O)N[C@H](Cc1cccnc1)C(=O)N[C@@H](CO)C(=O)N[C@@H](Cc1ccc(O)cc1)C(=O)N[C@H](CCCCNC(=O)c1cccnc1)C(=O)N[C@@H](CC(C)C)C(=O)N[C@@H](CCCNC(C)C)C(=O)N1CCC[C@H]1C(=O)N[C@H](C)C(N)=O [compound 24756] (Ac-[d2Nal][dPhe(4-Cl)][d3Pal]SY[dK](Nicotinoyl)L[Orn(iPr)]P[dA]-NH2)
13 | 139.7 ± 0 | CC(=O)N[C@H](Cc1ccc2ccccc2c1)C(=O)N[C@H](Cc1ccc(Cl)cc1)C(=O)N[C@H](Cc1cccnc1)C(=O)N[C@@H](CO)C(=O)N[C@@H](Cc1c[nH]cn1)C(=O)N[C@H](CCCCNC(=O)c1cccnc1)C(=O)N[C@@H](CC(C)C)C(=O)N[C@@H](CCCNC(=N)N)C(=O)N1CCC[C@H]1C(=O)N[C@H](C)C(N)=O [compound 24545] (Ac-[d2Nal][dPhe(4-Cl)][d3Pal]SH[dK](Nicotinoyl)LRP[dA]-NH2)
